# In US20210238169A1, “PROCESS FOR PREPARING A COMPOUND OF FORMULA (XIII)” (PULMOCIDE LIMITED, priority 2014, published 2021):
# Key:
# [1] = tested on: Aspergillus fumigatus (NCPF2010); experiment: Aspergillus fumigatus invasion in human alveoli bilayers (transwells), GM in lower chamber; type: cell-based; conditions: for DFB50 (days taken to reach a fungal burden of 50% of control) / GM Levels in the Lower Chamber, % inhibition vs. control / GM Levels in the Lower Chamber, OD value: Compound (I) 0.1 μg/mL upper chamber, Posaconazole 0.01 μg/mL lower chamber
# Description: In vitro models of human alveoli, consisting of a bilayer of human alveolar epithelial cells and endothelial cells, were prepared as previously described (Hope et al., 2007). […] Primary human pulmonary artery endothelial cells (HPAEC) were harvested and diluted to 10^6 cells/mL in EGM-2 media (Lonza, Basel, Switzerland). Transwells were inverted and the cell suspension (100 μL/well) was applied to the base of each transwell. The inverted transwells were incubated at RT within a flow hood for 2 hr after which they were turned upright. EGM-2 media was added to the lower (700 μL/well) and upper (100 μL/well) compartments and the transwells were incubated for 48 hr (37° C., 5% CO2). The EGM-2 media in the lower compartment was then replaced with fresh EGM-2 media. A549 cells were harvested and diluted to 5×10^5 cells/mL in 10% EBM, then added to the upper compartment (100 μL/well) of all transwells and the plates incubated for 72 hr (37° C., 5% CO2). Conidia of Aspergillus fumigatus (the itraconazole sensitive strain NCPF2010 and the itraconazole resistant strain TR34-L98H) were cultured separately in Sabouraud dextrose agar for 3 days. A stock conidia suspension of either strain was prepared from a Sabouraud dextrose agar culture by washing with PBS-tween (10 mL; PBS containing 0.05% Tween-20, 100 U/mL Penicillin and 100 U/mL Streptomycin). The conidia count was assessed using a Neubauer haemocytometer and adjusted to 10^6 conidia/mL with PBS. A working stock of conidia was prepared in EBM (conc of 10^5 conidia/mL) immediately prior to use.
# The media in the upper compartment was aspirated and that containing the appropriate test and reference compounds, or vehicle, were added (100 μL/well). Transwells were then transferred into the 24-well plate containing the test and reference compounds or DMSO vehicle. After incubation for 1 hr (35° C., 5% CO2) the conidia suspension (10 μL/well) was added to the upper compartment of each transwell. Plates were then incubated for 24 hr (35° C., 5% CO2). Supernatants from each compartment (5 μL/compartment) were collected and stored (−20° C.). Media was replaced daily after collection of the supernatants and all wells were treated with test and reference compounds or with DMSO, as described above, for 3 days. Samples continued to be collected until fungal growth was visible by eye in all transwells. The levels of GM in the supernatant in lower compartment were then measured by ELISA (BioRad, CA, USA) as an index of Aspergillus fumigatus invasion.
# [2] = tested on: Aspergillus fumigatus (ATCC 13073); experiment: IFNγ, IL-17 and MDA levels in BALF of Aspergillus fumigatus infected mice; type: in vivo; conditions: for ID50, IFNγ in BALF / ID50, IL-17 in BALF / ID50, MDA in BALF: Prophylactic Regimen
# Description: Aspergillus fumigatus (ATCC 13073 [strain: NIH 5233], American Type Culture Collection, Manassas, Va., USA) was grown on Malt agar (Nissui Pharmaceutical, Tokyo, Japan) plates for 6-7 days at RT (24±1° C.). Spores were aseptically dislodged from the agar plates and suspended in sterile distilled water with 0.05% Tween 80 and 0.1% agar. On the day of infection, spore counts were assessed by haemocytometer and the inoculum was adjusted to obtain a concentration of 1.67×10^8 spores mL^−1 of physiological saline.
# On day 0, animals were infected with the spore suspension (35 μL intra-nasally).
# Test compounds were administered intra-nasally ([…]) once daily, 30 min before infection on day 0 and then on days 1, 2 and 3 (representing prophylactic treatment) or on days 1, 2 and 3 only (representing therapeutic treatment). For extended prophylactic treatment, test compounds (35 μL of a suspension of 0.0032 or 0.016 mg/mL in physiological saline) were administered intra-nasally once daily for seven days; then 30 min before infection on day 0, and thereafter, either on days 1, 2 and 3 after infection, or on day 0 only. The effects of these treatment paradigms were compared with those obtained when treatment was restricted to one day and 30 min before inoculation and then on days 1, 2 and 3 post infection; or reduced still further to one day and 30 min before infection only.
# Six hours after the last dose, animals were anesthetised, the trachea was cannulated and BALF was collected. The total number of alveolar cells was determined using a haemocytometer, and the numbers of alveolar macrophages and neutrophils were determined by FACS analysis (EPICS® ALTRA II, Beckman Coulter, Inc., Fullerton, Calif., USA) using anti-mouse MOMA2-FITC (macrophage) or anti-mouse 7/4 (neutrophil), respectively, as previously reported (Kimura et al., 2013). The levels of IFN-γ and IL-17 in BALF, and IL-6 and TNFα in serum were determined using Quantikine® mouse IFN-γ, IL-17, IL-6 or TNF-α ELISA kit (R&D systems, Inc., Minneapolis, Minn., USA) respectively. MDA, an oxidative stress marker, was assayed using OxiSelect® TBARS Assay Kits (MDA Quantitation; Cell Biolabs Inc, San Diego, Calif., USA). Aspergillus GM in serum was determination using Platelia GM-EIA kits (Bio-Rad Laboratories, Redmond, Wash., USA). Cut-off index was calculated by the formula: Cut-off index=OD in sample/OD in cut-off control provided in kit. For tissue fungal load assays, 100 mg of lung tissue was removed aseptically and homogenized in 0.2 mL of 0.1% agar in sterile distilled water. Serially diluted lung homogenates were plated on Malt agar plates (50 μL/plate), and incubated at 24±1° C. for 72 to 96 h. The colonies of A. fumigatus on each plate was counted and the fungal titre presented as CFU per gram of lung tissue.
# [3] = prophylactic, 0.08 mg/mL intra-nasally
# [4] = prophylactic, 0.4 mg/mL intra-nasally
# [5] = prophylactic, 2 mg/mL intra-nasally
# [6] = therapeutic, 0.4 mg/mL intra-nasally
# [7] = therapeutic, 2 mg/mL intra-nasally
# [8] = therapeutic, 10 mg/mL intra-nasally
compound,measurement,setting,value
"Cc1cc(N2CCN(c3ccc(C(=O)Nc4ccc(F)cc4)cc3)CC2)ccc1OC[C@@H]1CO[C@@](Cn2cncn2)(c2ccc(F)cc2F)C1 [Compound (I), 4-(4-(4-(((3R,5R)-5-((1H-1,2,4-triazol-1-yl)methyl)-5-(2,4-difluorophenyl)tetrahydrofuran-3-yl)methoxy)-3-methylphenyl)piperazin-1-yl)-N-(4-fluorophenyl)benzamide]",DFB50 (days taken to reach a fungal burden of 50% of control),[1],1.13 days
same,effect of combination therapy on invasion in alveoli bilayers,"[1]; Compound (I) combined with intraconazole, voriconazole or caspofungin (results not shown)",synergistic or additive effect
same,"GM Levels in the Lower Chamber, % inhibition vs. control",[1]; Treatment Day 1,86%
same,"GM Levels in the Lower Chamber, OD value",[1]; Treatment Day 1,0.091 OD
same,"GM Levels in the Lower Chamber, % inhibition vs. control",[1]; Treatment Day 2,3.4%
same,"GM Levels in the Lower Chamber, OD value",[1]; Treatment Day 2,1.15 OD
same,"GM Levels in the Lower Chamber, % inhibition vs. control",[1]; Treatment Day 3,3.7%
same,"GM Levels in the Lower Chamber, OD value",[1]; Treatment Day 3,1.14 OD
same,"GM Levels in the Lower Chamber, % inhibition vs. control",[1]; Treatment Day 4,4.5%
same,"GM Levels in the Lower Chamber, OD value",[1]; Treatment Day 4,1.13 OD
same,"GM Levels in the Lower Chamber, % inhibition vs. control",[1]; Treatment Day 5,0.3%
same,"GM Levels in the Lower Chamber, % inhibition vs. control",[1]; Treatment Day 7,0.9%
same,"GM Levels in the Lower Chamber, OD value",[1]; Treatment Day 7,1.16 OD
same,"GM Levels in the Lower Chamber, % inhibition vs. control",[1]; Treatment Day 8,2.8%
same,"GM Levels in the Lower Chamber, OD value",[1]; Treatment Day 8,1.13 OD
same,"ID50, IFNγ in BALF",[2],<80 µg/mL
same,"ID50, IL-17 in BALF",[2],74 µg/mL
same,"ID50, MDA in BALF",[2],110 µg/mL
same,IFNγ concentration in BALF,[2]; [3],3.7 ± 1.7 pg/mL
same,"IFNγ in BALF, % Inhibition",[2]; [3],60%
same,IL-17 concentration in BALF,[2]; [3],9.8 ± 5.3 pg/mL
same,"IL-17 in BALF, % Inhibition",[2]; [3],51%
same,MDA concentration in BALF,[2]; [3],0.96 ± 0.32 µg/mL
same,"MDA in BALF, % Inhibition",[2]; [3],47%
same,IFNγ concentration in BALF,[2]; [4],3.0 ± 0.8 pg/mL
same,"IFNγ in BALF, % Inhibition",[2]; [4],67%
same,IL-17 concentration in BALF,[2]; [4],6.7 ± 4.9 pg/mL
same,"IL-17 in BALF, % Inhibition",[2]; [4],66%
same,MDA concentration in BALF,[2]; [4],0.57 ± 0.22 µg/mL
same,"MDA in BALF, % Inhibition",[2]; [4],68%
same,IFNγ concentration in BALF,[2]; [5],2.5 ± 0.3 pg/mL
same,"IFNγ in BALF, % Inhibition",[2]; [5],73%
same,IL-17 concentration in BALF,[2]; [5],3.2 ± 0.8 pg/mL
same,"IL-17 in BALF, % Inhibition",[2]; [5],84%
same,MDA concentration in BALF,[2]; [5],0.34 ± 0.05 µg/mL
same,"MDA in BALF, % Inhibition",[2]; [5],81%
same,IFNγ concentration in BALF,[2]; [6],4.3 ± 2.2 pg/mL
same,"IFNγ in BALF, % Inhibition",[2]; [6],53%
same,IL-17 concentration in BALF,[2]; [6],8.5 ± 2.9 pg/mL
same,"IL-17 in BALF, % Inhibition",[2]; [6],57%
same,MDA concentration in BALF,[2]; [6],0.45 ± 0.10 µg/mL
same,"MDA in BALF, % Inhibition",[2]; [6],75%
same,IFNγ concentration in BALF,[2]; [7],3.3 ± 0.8 pg/mL
same,"IFNγ in BALF, % Inhibition",[2]; [7],64%
same,IL-17 concentration in BALF,[2]; [7],4.0 ± 0.8 pg/mL
same,"IL-17 in BALF, % Inhibition",[2]; [7],80%
same,MDA concentration in BALF,[2]; [7],0.37 ± 0.10 µg/mL
same,"MDA in BALF, % Inhibition",[2]; [7],79%
same,IFNγ concentration in BALF,[2]; [8],2.1 ± 0.3 pg/mL
same,"IFNγ in BALF, % Inhibition",[2]; [8],77%
same,IL-17 concentration in BALF,[2]; [8],2.9 ± 0.7 pg/mL
same,"IL-17 in BALF, % Inhibition",[2]; [8],85%
same,MDA concentration in BALF,[2]; [8],0.25 ± 0.05 µg/mL
same,"MDA in BALF, % Inhibition",[2]; [8],86%
CC[C@@H]([C@H](C)O)n1ncn(-c2ccc(N3CCN(c4ccc(OC[C@@H]5CO[C@@](Cn6cncn6)(c6ccc(F)cc6F)C5)cc4)CC3)cc2)c1=O [Posaconazole],DFB50 (days taken to reach a fungal burden of 50% of control),[1],1.45 days
same,"GM Levels in the Lower Chamber, OD value",[1]; Treatment Day 0,0 OD
same,"GM Levels in the Lower Chamber, % inhibition vs. control",[1]; Treatment Day 1,91%
same,"GM Levels in the Lower Chamber, OD value",[1]; Treatment Day 1,0.064 OD
same,"GM Levels in the Lower Chamber, % inhibition vs. control",[1]; Treatment Day 2,15%
same,"GM Levels in the Lower Chamber, OD value",[1]; Treatment Day 2,1.01 OD
same,"GM Levels in the Lower Chamber, % inhibition vs. control",[1]; Treatment Day 3,4.1%
same,"GM Levels in the Lower Chamber, OD value",[1]; Treatment Day 3,1.14 OD
same,"GM Levels in the Lower Chamber, % inhibition vs. control",[1]; Treatment Day 4,1.1%
same,"GM Levels in the Lower Chamber, OD value",[1]; Treatment Day 4,1.17 OD
same,"GM Levels in the Lower Chamber, % inhibition vs. control",[1]; Treatment Day 5,−0.6%
same,"GM Levels in the Lower Chamber, OD value",[1]; Treatment Day 5,1.18 OD
same,"GM Levels in the Lower Chamber, % inhibition vs. control",[1]; Treatment Day 6,−1.1%
same,"GM Levels in the Lower Chamber, OD value",[1]; Treatment Day 6,1.19 OD
same,"GM Levels in the Lower Chamber, % inhibition vs. control",[1]; Treatment Day 7,0.3%
same,"GM Levels in the Lower Chamber, OD value",[1]; Treatment Day 7,1.17 OD
same,"GM Levels in the Lower Chamber, % inhibition vs. control",[1]; Treatment Day 8,0.8%
same,"GM Levels in the Lower Chamber, OD value",[1]; Treatment Day 8,1.15 OD
same,"ID50, IFNγ in BALF",[2],220 µg/mL
same,"ID50, IL-17 in BALF",[2],610 µg/mL
same,"ID50, MDA in BALF",[2],690 µg/mL
